Measurements reported in patent US9221827B2, “Antimicrobial compounds and methods of making and using the same” (Melinta Therapeutics, Inc., priority 2011, dated 2015).

System: Escherichia coli strain ATCC25922
Assay: standard microdilution assay to determine minimum inhibitory concentrations (MICs)
Format: cell-based
Conditions: Escherichia coli strain ATCC25922, microdilution
Method in brief: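 Broth microdilution per CLSI (M7-A8/M100-S20), 100 μl final volume, with reference-strain quality control; MIC is the lowest inhibitory concentration. Scored "+"/"−" against a 16 micrograms/ml cutoff, "N/A" where unavailable.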

`C=CC[C@H](NCCCNC(=N)N)c1ccc(-n2cc3cc(-c4cc(CCC[C@H](C)N)cc(C(F)(F)F)c4)[nH]c3nc2=O)cc1` [Compound 474] was tested, and the “E. coli ATCC25922 MIC” value was “+ (a “+” indicates that the compound has an MIC value of 16 micrograms/ml or less)”.

`C=C[C@H](NCCCNC(=N)N)c1ccc(-n2cc3cc(-c4cc(CCC[C@H](C)N)cc(Cl)c4F)[nH]c3nc2=O)cc1` [Compound 475] was tested, and the “E. coli ATCC25922 MIC” value was “+ (a “+” indicates that the compound has an MIC value of 16 micrograms/ml or less)”.

`N=C(N)NCCCNCc1ccc(-n2cc3cc(-c4cc(CCC5COCC5N)cc(OC(F)(F)F)c4)[nH]c3nc2=O)cc1` (stereo not drawn) [Compound 476] was tested, and the “E. coli ATCC25922 MIC” value was “+ (a “+” indicates that the compound has an MIC value of 16 micrograms/ml or less)”.

In the case of `C[C@H](NCCCNC(=N)N)c1ccc(-n2cc3cc(-c4cc(CCC5COCC5N)cc(OC(F)(F)F)c4)[nH]c3nc2=O)cc1` (stereo partly drawn) [Compound 477], the “E. coli ATCC25922 MIC” value is reported as “+ (a “+” indicates that the compound has an MIC value of 16 micrograms/ml or less)”.

With `CC(N)COC(C)c1cc(-c2cc3cn(-c4ccc([C@H](C)NCCCNC(=N)N)cc4)c(=O)nc3[nH]2)cc(C(F)(F)F)c1` (stereo partly drawn) [Compound 478] the “E. coli ATCC25922 MIC” value was “+ (a “+” indicates that the compound has an MIC value of 16 micrograms/ml or less)”.

For `CCC(N)COC(C)c1cc(-c2cc3cn(-c4ccc(CNCCCNC(=N)N)cc4)c(=O)nc3[nH]2)cc(C(F)(F)F)c1` (stereo not drawn) [Compound 479], the “E. coli ATCC25922 MIC” value was “+ (a “+” indicates that the compound has an MIC value of 16 micrograms/ml or less)”.

In the case of `CCC(N)COC(C)c1cc(-c2cc3cn(-c4ccc([C@H](C)NCCCNC(=N)N)cc4)c(=O)nc3[nH]2)cc(C(F)(F)F)c1` (stereo partly drawn) [Compound 480], the “E. coli ATCC25922 MIC” value is reported as “+ (a “+” indicates that the compound has an MIC value of 16 micrograms/ml or less)”.

For `C=CC(NCCCNC(=N)N)c1ccc(-n2cc3cc(-c4cc(CCCC(C)N)cc(Cl)c4F)[nH]c3nc2=O)cc1` (stereo not drawn) [Compound 481], the “E. coli ATCC25922 MIC” value was “+ (a “+” indicates that the compound has an MIC value of 16 micrograms/ml or less)”.

`C=CC(NCCCNC(=N)N)c1ccc(-n2cc3cc(-c4cc(CCCC(C)N)cc(C(F)(F)F)c4)[nH]c3nc2=O)cc1` (stereo not drawn) [Compound 482] was tested, and the “E. coli ATCC25922 MIC” value was “+ (a “+” indicates that the compound has an MIC value of 16 micrograms/ml or less)”.

With `CC(N)CCCc1cc(-c2cc3cn(-c4ccc(CNCCCNC(=N)N)cc4)c(=O)nc3[nH]2)cc(C2CCCC2)c1` (stereo not drawn) [Compound 483] the “E. coli ATCC25922 MIC” value was “+ (a “+” indicates that the compound has an MIC value of 16 micrograms/ml or less)”.

`CC(N)CCCc1cc(-c2cc3cn(-c4ccc(C(C)NCCCNC(=N)N)cc4)c(=O)nc3[nH]2)cc(C2CCCC2)c1` (stereo not drawn) [Compound 484] was tested, and the “E. coli ATCC25922 MIC” value was “+ (a “+” indicates that the compound has an MIC value of 16 micrograms/ml or less)”.

`CC(N)CCCc1cc(-c2cc3cn(-c4ccc(C5(NCCCNC(=N)N)CC5)cc4)c(=O)nc3[nH]2)cc(C(F)(F)F)c1` (stereo not drawn) [Compound 485] was tested, and the “E. coli ATCC25922 MIC” value was “+ (a “+” indicates that the compound has an MIC value of 16 micrograms/ml or less)”.

In the case of `CC(N)CCCc1cc(Cl)c(F)c(-c2cc3cn(-c4ccc(C5(NCCCNC(=N)N)CC5)cc4)c(=O)nc3[nH]2)c1` (stereo not drawn) [Compound 486], the “E. coli ATCC25922 MIC” value is reported as “+ (a “+” indicates that the compound has an MIC value of 16 micrograms/ml or less)”.

In the case of `COC(=O)CC(NCCCNC(=N)N)c1ccc(-n2cc3cc(-c4cc(CCCC(C)N)cc(Cl)c4F)[nH]c3nc2=O)cc1` (stereo not drawn) [Compound 487], the “E. coli ATCC25922 MIC” value is reported as “+ (a “+” indicates that the compound has an MIC value of 16 micrograms/ml or less)”.

In the case of `COC(=O)CC(NCCCNC(=N)N)c1ccc(-n2cc3cc(-c4cc(CCCC(C)N)cc(C(F)(F)F)c4)[nH]c3nc2=O)cc1` (stereo not drawn) [Compound 488], the “E. coli ATCC25922 MIC” value is reported as “+ (a “+” indicates that the compound has an MIC value of 16 micrograms/ml or less)”.

For `CC(N)CCCc1cc(Cl)c(F)c(-c2cc3cn(-c4ccc(C(CC(=O)O)NCCCNC(=N)N)cc4)c(=O)nc3[nH]2)c1` (stereo not drawn) [Compound 489], the “E. coli ATCC25922 MIC” value was “+ (a “+” indicates that the compound has an MIC value of 16 micrograms/ml or less)”.

`CC(N)CCCc1cc(-c2cc3cn(-c4ccc(C(CC(=O)O)NCCCNC(=N)N)cc4)c(=O)nc3[nH]2)cc(C(F)(F)F)c1` (stereo not drawn) [Compound 490] was tested, and the “E. coli ATCC25922 MIC” value was “− (a “−” indicates that the compound has an MIC value greater than 16 micrograms/ml)”.

With `COC(=O)CC(NCCCNC(=N)N)c1ccc(-n2cc3cc(-c4cc(CCCC(C)N)cc(SC(F)(F)F)c4)[nH]c3nc2=O)cc1` (stereo not drawn) [Compound 491] the “E. coli ATCC25922 MIC” value was “+ (a “+” indicates that the compound has an MIC value of 16 micrograms/ml or less)”.

`CC(N)CCCc1cc(-c2cc3cn(-c4ccc(C(C)NCCCNC(=N)N)cc4)c(=O)nc3[nH]2)c(F)c(Cl)c1F` (stereo not drawn) [Compound 493] was tested, and the “E. coli ATCC25922 MIC” value was “+ (a “+” indicates that the compound has an MIC value of 16 micrograms/ml or less)”.

With `COC(=O)C(NCCCNC(=N)N)c1ccc(-n2cc3cc(-c4cc(CCCC(C)N)cc(Cl)c4F)[nH]c3nc2=O)cc1` (stereo not drawn) [Compound 494] the “E. coli ATCC25922 MIC” value was “+ (a “+” indicates that the compound has an MIC value of 16 micrograms/ml or less)”.

`CC(N)CCCc1cc(Cl)c(F)c(-c2cc3cn(-c4ccc(C(NCCCNC(=N)N)C(=O)O)cc4)c(=O)nc3[nH]2)c1` (stereo not drawn) [Compound 495] was tested, and the “E. coli ATCC25922 MIC” value was “+ (a “+” indicates that the compound has an MIC value of 16 micrograms/ml or less)”.

In the case of `COC(=O)C(NCCCNC(=N)N)c1ccc(-n2cc3cc(-c4cc(CCCC(C)N)cc(C(F)(F)F)c4)[nH]c3nc2=O)cc1` (stereo not drawn) [Compound 496], the “E. coli ATCC25922 MIC” value is reported as “+ (a “+” indicates that the compound has an MIC value of 16 micrograms/ml or less)”.

For `CC(N)CCCc1cc(-c2cc3cn(-c4ccc(C(NCCCNC(=N)N)C(=O)O)cc4)c(=O)nc3[nH]2)cc(C(F)(F)F)c1` (stereo not drawn) [Compound 497], the “E. coli ATCC25922 MIC” value was “− (a “−” indicates that the compound has an MIC value greater than 16 micrograms/ml)”.

For `COC(=O)C(NCCCNC(=N)N)c1ccc(-n2cc3cc(-c4cc(CCCC(C)N)cc(SC(F)(F)F)c4)[nH]c3nc2=O)cc1` (stereo not drawn) [Compound 498], the “E. coli ATCC25922 MIC” value was “+ (a “+” indicates that the compound has an MIC value of 16 micrograms/ml or less)”.

`CC(N)CCCc1cc(-c2cc3cn(-c4ccc(CNCCCNC(=N)N)cc4)c(=O)nc3[nH]2)c(F)c(Cl)c1F` (stereo not drawn) [Compound 499] was tested, and the “E. coli ATCC25922 MIC” value was “+ (a “+” indicates that the compound has an MIC value of 16 micrograms/ml or less)”.

In the case of `CC(N)CCCc1cc(SC(F)(F)F)cc(-c2cc3cn(-c4ccc(C5(NCCCNC(=N)N)CC5)cc4)c(=O)nc3[nH]2)c1` (stereo not drawn) [Compound 500], the “E. coli ATCC25922 MIC” value is reported as “+ (a “+” indicates that the compound has an MIC value of 16 micrograms/ml or less)”.

For `C=CC(NCCCNC(=N)N)c1ccc(-n2cc3cc(-c4cc(CCCC(C)N)cc(C(F)(F)F)c4)[nH]c3nc2=O)cc1` (stereo not drawn) [Compound 501], the “E. coli ATCC25922 MIC” value was “+ (a “+” indicates that the compound has an MIC value of 16 micrograms/ml or less)”.

`C=CC(NCCCNC(=N)N)c1ccc(-n2cc3cc(-c4cc(CCCC(C)N)cc(SC(F)(F)F)c4)[nH]c3nc2=O)cc1` (stereo not drawn) [Compound 502] was tested, and the “E. coli ATCC25922 MIC” value was “+ (a “+” indicates that the compound has an MIC value of 16 micrograms/ml or less)”.

With `CC(N)CCCc1cc(SC(F)(F)F)cc(-c2cc3cn(-c4ccc(C(NCCCNC(=N)N)C(=O)O)cc4)c(=O)nc3[nH]2)c1` (stereo not drawn) [Compound 503] the “E. coli ATCC25922 MIC” value was “− (a “−” indicates that the compound has an MIC value greater than 16 micrograms/ml)”.

`CC(N)CCCc1cc(-c2cc3cn(-c4ccc(C(C)NCCCNC(=N)N)cc4)c(=O)nc3[nH]2)cc(C(O)C(F)(F)F)c1` (stereo not drawn) [Compound 504] was tested, and the “E. coli ATCC25922 MIC” value was “+ (a “+” indicates that the compound has an MIC value of 16 micrograms/ml or less)”.

With `CC(N)CCCc1cc(-c2cc3cn(-c4ccc(C(CCO)NCCCNC(=N)N)cc4)c(=O)nc3[nH]2)cc(C(F)(F)F)c1` (stereo not drawn) [Compound 505] the “E. coli ATCC25922 MIC” value was “+ (a “+” indicates that the compound has an MIC value of 16 micrograms/ml or less)”.

`CC(N)CCCc1cc(Cl)c(F)c(-c2cc3cn(-c4ccc(C(CCO)NCCCNC(=N)N)cc4)c(=O)nc3[nH]2)c1` (stereo not drawn) [Compound 506] was tested, and the “E. coli ATCC25922 MIC” value was “+ (a “+” indicates that the compound has an MIC value of 16 micrograms/ml or less)”.

With `CC(N)CCCc1cc(SC(F)(F)F)cc(-c2cc3cn(-c4ccc(C(CCO)NCCCNC(=N)N)cc4)c(=O)nc3[nH]2)c1` (stereo not drawn) [Compound 507] the “E. coli ATCC25922 MIC” value was “+ (a “+” indicates that the compound has an MIC value of 16 micrograms/ml or less)”.
